Results from ChEMBL document CHEMBL1128255, “Synthesis of 11 beta-[18F]fluoro-5 alpha-dihydrotestosterone and 11 beta-[18F]fluoro-19-nor-5 alpha-dihydrotestosterone: preparation via halofluorination-reduction, receptor binding, and tissue distribution” (J Med Chem, 1995).

Key:
[1] = %ID/g is percent injected dose per gram of tissue and in vivo distribution of compound obtained after 2 hour in prostate (d)/muscle; type: ADME, organism-based
[2] = %ID/g is percent injected dose per gram of tissue and in vivo distribution of compound obtained after 2 hour in prostate (v)/blood; type: ADME, organism-based
[3] = %ID/g is percent injected dose per gram of tissue and in vivo distribution of compound obtained after 1 hour in kidney; type: ADME, organism-based
[4] = %ID/g is percent injected dose per gram of tissue and in vivo distribution of compound obtained after 2 hour (blocked) in bone; type: ADME, organism-based, Bone element
[5] = %ID/g is percent injected dose per gram of tissue and in vivo distribution of compound obtained after 1 hour in muscle; type: ADME, organism-based
[6] = %ID/g is percent injected dose per gram of tissue and in vivo distribution of compound obtained after 2 hour in prostate (v); type: ADME, organism-based, Prostate gland
[7] = %ID/g is percent injected dose per gram of tissue and in vivo distribution of compound obtained after 4 hour in prostate (d)/muscle; type: ADME, organism-based
[8] = %ID/g is percent injected dose per gram of tissue and in vivo distribution of compound obtained after 1 hour in prostate (d)/biood; type: ADME, organism-based, Prostate gland; settings: other tissue
[9] = %ID/g is percent injected dose per gram of tissue and in vivo distribution of compound obtained after 4 hour in prostate (v); type: ADME, organism-based, Prostate gland
[10] = %ID/g is percent injected dose per gram of tissue and in vivo distribution of compound obtained after 2 hour in prostate (d)/biood; type: ADME, organism-based, Prostate gland
[11] = %ID/g is percent injected dose per gram of tissue and in vivo distribution of compound obtained after 2 hour (blocked) in muscle; type: ADME, organism-based
[12] = %ID/g is percent injected dose per gram of tissue and in vivo distribution of compound obtained after 2 hour (low) in bone; type: ADME, organism-based, Bone element
[13] = %ID/g is percent injected dose per gram of tissue and in vivo distribution of compound obtained after 1 hour in prostate (v)/blood; type: ADME, organism-based
[14] = %ID/g is percent injected dose per gram of tissue and in vivo distribution of compound obtained after 2 hour (blocked) in lung; type: ADME, organism-based
[15] = %ID/g is percent injected dose per gram of tissue and in vivo distribution of compound obtained after 4 hour in kidney; type: ADME, organism-based
[16] = %ID/g is percent injected dose per gram of tissue and in vivo distribution of compound obtained after 4 hour in liver; type: ADME, organism-based
[17] = %ID/g is percent injected dose per gram of tissue and in vivo distribution of compound obtained after 2 hour (blocked) in liver; type: ADME, organism-based
[18] = %ID/g is percent injected dose per gram of tissue and in vivo distribution of compound obtained after 1 hour in spleen; type: ADME, organism-based
[19] = %ID/g is percent injected dose per gram of tissue and in vivo distribution of compound obtained after 2 hour (low) in blood; type: ADME, organism-based
[20] = %ID/g is percent injected dose per gram of tissue and in vivo distribution of compound obtained after 1 hour in bone; type: ADME, organism-based, Bone element
[21] = %ID/g is percent injected dose per gram of tissue and in vivo distribution of compound obtained after 2 hour (low) in prostate (v)/blood; type: ADME, organism-based
[22] = %ID/g is percent injected dose per gram of tissue and in vivo distribution of compound obtained after 2 hour (low) in spleen; type: ADME, organism-based
[23] = %ID/g is percent injected dose per gram of tissue and in vivo distribution of compound obtained after 2 hour (low) in prostate (d); type: ADME, organism-based, Prostate gland
[24] = %ID/g is percent injected dose per gram of tissue and in vivo distribution of compound obtained after 2 hour in liver; type: ADME, organism-based
[25] = %ID/g is percent injected dose per gram of tissue and in vivo distribution of compound obtained after 4 hour in bone; type: ADME, organism-based, Bone element
[26] = %ID/g is percent injected dose per gram of tissue and in vivo distribution of compound obtained after 1 hour in liver; type: ADME, organism-based
[27] = %ID/g is percent injected dose per gram of tissue and in vivo distribution of compound obtained after 2 hour (blocked) in spleen; type: ADME, organism-based
[28] = %ID/g is percent injected dose per gram of tissue and in vivo distribution of compound obtained after 4 hour in spleen; type: ADME, organism-based
[29] = %ID/g is percent injected dose per gram of tissue and in vivo distribution of compound obtained after 2 hour in prostate (v)/muscle; type: ADME, organism-based
[30] = %ID/g is percent injected dose per gram of tissue and in vivo distribution of compound obtained after 1 hour in lung; type: ADME, organism-based
[31] = %ID/g is percent injected dose per gram of tissue and in vivo distribution of compound obtained after 4 hour in prostate (d)/biood; type: ADME, organism-based, Prostate gland
[32] = %ID/g is percent injected dose per gram of tissue and in vivo distribution of compound obtained after 2 hour (blocked) in kidney; type: ADME, organism-based
[33] = %ID/g is percent injected dose per gram of tissue and in vivo distribution of compound obtained after 4 hour in prostate (v)/blood; type: ADME, organism-based; settings: other tissue
[34] = %ID/g is percent injected dose per gram of tissue and in vivo distribution of compound obtained after 2 hour (low) in prostate (v); type: ADME, organism-based, Prostate gland
[35] = %ID/g is percent injected dose per gram of tissue and in vivo distribution of compound obtained after 2 hr in kidney; type: ADME, organism-based
[36] = %ID/g is percent injected dose per gram of tissue and in vivo distribution of compound obtained after 2 hour (blocked) in prostate (d); type: ADME, organism-based, Prostate gland
[37] = %ID/g is percent injected dose per gram of tissue and in vivo distribution of compound obtained after 2 hour (low) in bladder; type: ADME, organism-based, Urinary bladder
[38] = %ID/g is percent injected dose per gram of tissue and in vivo distribution of compound obtained after 2 hour (low) in kidney; type: ADME, organism-based
[39] = %ID/g is percent injected dose per gram of tissue and in vivo distribution of compound obtained after 2 hour in spleen; type: ADME, organism-based
[40] = %ID/g is percent injected dose per gram of tissue and in vivo distribution of compound obtained after 2 hour (blocked) in blood; type: ADME, organism-based

| SMILES | ID/g [1] [%] | ID/g [2] [%] | ID/g [3] [%] | ID/g [4] [%] | ID/g [5] [%] | ID/g [6] [%] | ID/g [7] [%] | ID/g [8] [%] | ID/g [9] [%] | ID/g [10] [%] | ID/g [11] [%] | ID/g [12] [%] | ID/g [13] [%] | ID/g [14] [%] | ID/g [15] [%] | ID/g [16] [%] | ID/g [17] [%] | ID/g [18] [%] | ID/g [19] [%] | ID/g [20] [%] | also measured |
| --- | --- | --- | --- | --- | --- | --- | --- | --- | --- | --- | --- | --- | --- | --- | --- | --- | --- | --- | --- | --- | --- |
| C[C@]12CCC(=O)C[C@@H]1CC[C@@H]1[C@@H]2[C@@H](F)C[C@]2(C)[C@@H](O)CC[C@@H]12 | 10.141 | 10.058 | 0.417 | 0.061 | 0.059 | 0.317 | 17.573 | 5.16 | 0.327 | 10.642 | 0.023 | 0.059 | 5.41 | 0.039 | 0.155 | 0.415 | 0.468 | 0.048 | 0.022 | 0.064 | ID/g [21]: 10.43%; ID/g [22]: 0.017%; ID/g [23]: 0.229%; ID/g [24]: 0.451%; ID/g [25]: 0.072%; ID/g [26]: 1.16%; ID/g [27]: 0.026%; ID/g [28]: 0.02%; ID/g [29]: 9.022%; ID/g [30]: 0.111%; ID/g [31]: 10.827%; ID/g [32]: 0.2%; ID/g [33]: 12.249%; ID/g [34]: 0.212%; ID/g [35]: 0.229%; ID/g [36]: 0.074%; ID/g [37]: 0.263%; ID/g [38]: 0.145%; ID/g [39]: 0.03%; ID/g [40]: 0.048% |
| C[C@]12C[C@H](F)[C@H]3[C@@H](CC[C@H]4CC(=O)CC[C@@H]43)[C@@H]1CC[C@@H]2O | 3.882 | 2.605 | 0.458 | 0.065 | 0.064 | 0.12 | 3.98 | 2.531 | 0.066 | 2.95 | 0.03 | 0.096 | 3.054 | 0.054 | 0.201 | 0.863 | 1.189 | 0.061 | 0.047 | 0.068 | ID/g [21]: 2.427%; ID/g [22]: 0.049%; ID/g [23]: 0.139%; ID/g [24]: 0.992%; ID/g [25]: 0.078%; ID/g [26]: 1.812%; ID/g [27]: 0.032%; ID/g [28]: 0.029%; ID/g [29]: 3.404%; ID/g [30]: 0.115%; ID/g [31]: 2.682%; ID/g [32]: 0.301%; ID/g [33]: 2.036%; ID/g [34]: 0.109%; ID/g [35]: 0.276%; ID/g [36]: 0.048%; ID/g [37]: 0.686%; ID/g [38]: 0.251%; ID/g [39]: 0.036%; ID/g [40]: 0.061% |
